Measured values reported in publication PMC6277767, “Broad and Region-Specific Impacts of the Synthetic Cannabinoid CP 55,940 in Adolescent and Adult Female Mouse Brains” (Frontiers in Molecular Neuroscience, 2018).

System: CD1 female mouse brain lipidome
Test: Brain-region lipid levels (HPLC/MS/MS lipidomics) 2 h after single i.p. 3 mg/kg CP 55,940 vs vehicle
Assay type: in vivo
Design: N-arachidonoyl phenylalanine level, Mean / N-stearoyl tryptophan level, Mean / N-stearoyl proline level, Mean / N-stearoyl leucine level, Mean / N-stearoyl phenylalanine level, Mean / N-stearoyl serine level, Mean / N-stearoyl methionine level, Mean: unit: moles per gram
Procedure: The Bloomington Institutional Animal Care and Use Committee of Indiana University reviewed and approved the animal procedures. Female mice from the CD1 strain were utilized to match our study examining THC’s effects on the brain lipidome ([Leishman et al., 2018]). Mice were given a single i.p. injection of either 3 mg/kg CP or 1:1:18 cremophor:ethanol:saline vehicle (please refer to the section “3 mg/kg CP Is Relevant for Synthetic Cannabinoid Abuse and Has Stronger Effects on the Female Mouse Brain Lipidome During Adolescence” for a justification of dose and use of female mice). Three different age groups were given injections: PND 35 and PND 50 adolescents, and adult mice (PND 113). At least eight mice in each age group received CP and at least eight received vehicle. Matching the THC study time course ([Leishman et al., 2018]), mice were sacrificed via rapid decapitation 2 h after injection. Brains were immediately removed and flash-frozen in liquid nitrogen, and then stored at -80°C until dissections were performed. Brains were dissected on an ice-cold dissection plate into the following regions: STR, HIPP, CER, THAL, CTX, HYP, MID, and STEM. These abbreviations for these brain areas will be used exclusively when discussing the results generated by these specific dissections. Each dissected area was immediately placed in liquid nitrogen and then stored at -80°C until used for lipid extraction.
Tissue extracts were performed as previously described ([Bradshaw et al., 2006]; [Stuart et al., 2013]; [Raboune et al., 2014]; [Leishman et al., 2016a],[b], [2017], [2018]). First, samples were shock frozen in liquid nitrogen, weighed, and transferred to a centrifuge tube. The mass of the largest sample was multiplied by 50 to determine how many milliliters of HPLC-grade methanol (Fisher, Fair Lawn, NJ, United States) to add. Then, samples were spiked with 500 pmol deuterium-labeled NAGly (d8NAGly; Cayman Chemical, Ann Arbor, MI, United States). Samples were placed on ice in darkness for 2 h then individually homogenized and centrifuged at 19,000 × g for 20 min at 20°C. Supernatants were diluted with HPLC water (purified in house) to make a solution of 75% water, 25% supernatant. Lipids were partially purified on C18 solid phase extraction columns (Agilent, Palo Alto, CA, United States). A series of four elutions with 1.5 mL of 60%, 75%, 85%, and 100% methanol were collected ([Stuart et al., 2013]; [Leishman et al., 2016a],[b], [2018]).
As previously described ([Bradshaw et al., 2006]; [Tan et al., 2006]; [Smoum et al., 2010]; [Stuart et al., 2013]; [Tortoriello et al., 2013]; [Raboune et al., 2014]; [Leishman et al., 2016a],[b], [2017], [2018]), samples were analyzed using an Applied Biosystems API 3000 triple quadrupole mass spectrometer with electrospray ionization (Foster City, CA, United States). Using an Agilent XDB-C18 reversed phase analytical column and optimized mobile phase gradients, 20 μL from each elution were chromatographed. Two Shimadzu 10ADvp pumps (Columbia, MD, United States) provided the pressure for gradient elution. Mobile phase A: 20% methanol, 80% water (v/v) and 1 mM ammonium acetate (Sigma, St. Louis, MO, United States). Mobile phase B: 100% methanol, 1 mM ammonium acetate. Every method run began with 0% mobile phase B, reached 100% mobile phase B flowing at 0.2 mL/min, and gradually returned to 0% mobile phase B.
This screening library will be referred to as the lipidome when discussing data from this study. HPLC/MS/MS data were analyzed using Analyst software (Applied Biosystems) ([Bradshaw et al., 2006]; [Tan et al., 2006]; [Stuart et al., 2013]; [Tortoriello et al., 2013]; [Raboune et al., 2014]; [Leishman et al., 2016a],[b], [2017], [2018]). Chromatograms (Supplementary Figure 3) were generated by determining the retention time of analytes from the analytical column with a [M-1] or [M+1] parent peak and a fragmentation peak corresponding to the programmed values. […]

[1] = midbrain, PND 35 WT adolescent female mice, 3 mg/kg
[2] = striatum, PND 50, 3mg/kg CP 55,940 vs Veh
[3] = striatum, PND 50 female mice, 3mg/kg CP 55,940, mean

## CCCCCCC(C)(C)c1ccc([C@@H]2C[C@H](O)CC[C@H]2CCCO)c(O)c1 [CP 55,940]
[1]
  N-stearoyl GABA level, Mean: 7.82E-12
  N-stearoyl alanine level, Mean: 9.99E-12
  N-stearoyl ethanolamine level, Mean: 1.75E-11
  N-stearoyl glycine level, Mean: 2.16E-11
  N-stearoyl leucine level, Mean: 1.07E-12
  N-stearoyl methionine level, Mean: 2.71E-12
  N-stearoyl phenylalanine level, Mean: 2.34E-12
  N-stearoyl proline level, Mean: 3.86E-13
  N-stearoyl serine level, Mean: 3.54E-11
  N-stearoyl tryptophan level, Mean: 7E-13
  N-stearoyl tyrosine level, Mean: 2.3E-13
  Oleic acid level, Mean: 1.55E-09
  PGE2 level, Mean: 5.98E-10
  PhosphoLEA level, Mean: 1.57E-11
[2]
  2-arachidonoyl glycerol, Direction (relative to Veh): ↓
  2-arachidonoyl glycerol, Magnitude (x Veh level): 0.86 x Veh level
  2-linoleoyl glycerol Direction (relative to Veh): ↓
  2-linoleoyl glycerol Magnitude (x Veh level): 0.77 x Veh level
  Arachidonic acid, Direction (relative to Veh): ↓
  Arachidonic acid, Magnitude (x Veh level): 0.81 x Veh level
  Linoleic acid, Direction (relative to Veh): ↓
  Linoleic acid, Magnitude (x Veh level): 0.78 x Veh level
  N-arachidonoyl GABA Direction (relative to Veh): ↓
  N-arachidonoyl GABA Magnitude (x Veh level): 0.71 x Veh level
  N-arachidonoyl glycine Direction (relative to Veh): ↓
  N-arachidonoyl glycine Magnitude (x Veh level): 0.65 x Veh level
  N-arachidonoyl phenylalanine, Direction (relative to Veh): ↓
  N-arachidonoyl phenylalanine, Magnitude (x Veh level): 0.78 x Veh level
  N-arachidonoyl taurine Direction (relative to Veh): ↓
  N-arachidonoyl taurine Magnitude (x Veh level): 0.91 x Veh level
  N-docosahexaenoyl GABA Direction (relative to Veh): ↓
  N-docosahexaenoyl GABA Magnitude (x Veh level): 0.81 x Veh level
  N-docosahexaenoyl glycine Direction (relative to Veh): ↓
  N-docosahexaenoyl glycine Magnitude (x Veh level): 0.51 x Veh level
  N-palmitoyl leucine, Direction (relative to Veh): ↑
  N-palmitoyl leucine, Magnitude (x Veh level): 1.33 x Veh level
  N-palmitoyl tyrosine Magnitude (x Veh level): 1.35 x Veh level
  N-palmitoyl tyrosine, Direction (relative to Veh): ↑
  N-palmitoyl valine Direction (relative to Veh): ↑
  N-palmitoyl valine Magnitude (x Veh level): 1.72 x Veh level
  Oleic acid, Direction (relative to Veh): ↓
  Oleic acid, Magnitude (x Veh level): 0.79 x Veh level
  PGF2α Direction (relative to Veh): ↑
  PGF2α Magnitude (x Veh level): 1.16 x Veh level
[3]
  2-arachidonoyl-sn-glycerol level: 1.35E-10
  2-linoleoyl-sn-glycerol level: 8.22E-11
  2-oleoyl-sn-glycerol level: 9.26E-10
  2-palmitoyl-sn-glycerol level: 1.09E-09
  11-OH-THC level: BDL
  11-nor-9-carboxyTHC level: BDL
  Arachidonic acid level: 2.35E-10
  Cannabidiol level: BDL
  Linoleic acid level: 1.59E-10
  N-arachidonoyl GABA level: 4.29E-12
  N-arachidonoyl dopamine level: BDL
  N-arachidonoyl ethanolamine level: 2.93E-11
  N-arachidonoyl glycine level: 5.51E-13
  N-arachidonoyl phenylalanine level: 3.83E-13
  N-arachidonoyl proline level: BDL
  N-arachidonoyl taurine level: 2.53E-11
  N-arachidonoyl tryptophan level: BDL
  N-docosahexaenoyl GABA level: 4.96E-13
  N-docosahexaenoyl ethanolamine level: 3.09E-11
  N-docosahexaenoyl glycine level: 1.15E-13
  N-docosahexaenoyl leucine level: 1.19E-13
  N-docosahexaenoyl methionine level: BDL
  N-docosahexaenoyl phenylalanine level: 4.38E-13
  N-docosahexaenoyl proline level: BDL
  N-docosahexaenoyl tryptophan level: BDL
  N-docosahexaenoyl valine level: BDL
  N-linoleoyl alanine level: 1.36E-13
  N-linoleoyl ethanolamine level: 5.34E-11
  N-linoleoyl glycine level: 6.89E-14
  N-linoleoyl leucine level: 4.43E-14
  N-linoleoyl proline level: BDL
  N-linoleoyl serine level: 1.09E-10
  N-linoleoyl tryptophan level: BDL
  N-linoleoyl tyrosine level: BDL
  N-nervonoyl valine level: BDL
  N-oleoyl GABA level: 1.25E-12
  N-oleoyl alanine level: 1.2E-12
  N-oleoyl dopamine level: BDL
  N-oleoyl ethanolamine level: 6.94E-11
  N-oleoyl glycine level: 1.27E-12
  N-oleoyl leucine level: 4.16E-13
  N-oleoyl methionine level: 3.74E-13
  N-oleoyl phenylalanine level: 5.89E-13
  N-oleoyl proline level: BDL
  N-oleoyl serine level: 2.17E-10
  N-oleoyl tryptophan level: BDL
  N-oleoyl tyrosine level: 1.31E-13
  N-palmitoyl GABA level: 3.11E-12
  N-palmitoyl alanine level: 4.63E-12
  N-palmitoyl ethanolamine level: 6.26E-11
  N-palmitoyl glycine level: 5.26E-12
  N-palmitoyl leucine level: 1.06E-12
  N-palmitoyl methionine level: 1.12E-12
  N-palmitoyl phenylalanine level: 9.78E-13
  N-palmitoyl proline level: BDL
  N-palmitoyl serine level: 2.18E-11
  N-palmitoyl tryptophan level: BDL
  N-palmitoyl tyrosine level: 4.79E-13
